Source: patent US6172110A, “Acylated betulin and dihydrobetulin derivatives, preparation thereof and use thereof” (The University of North Carolina at Chapel Hill, priority 1999, dated 2001)
“Also recorded” adds a separate entry of the source. Like-named read-outs stand apart in the source and are kept apart here.

How the values were obtained:
HIV-1 (IIIB isolate) = experiment: HIV-1 inhibition (p24 antigen ELISA) in infected H9 lymphocytes; format: cell-based; details: for Therapeutic Index (TI = IC50/EC50): H9 cells, average of at least two experiments; for anti-HIV activity, result in words / TI, result in words: H-9 lymphocytes; for anti-HIV activity, result in words: EC50 compared with related compounds; for EC50: Human immunodeficiency virus 1, IIIB, Lymphocyte, 96 h, read-out: Anti-HIV Activity EC50; for TI, result in words: compared with related compounds
Protocol: (§1) Aliquot of this cell line were only used in experiments when in log-phase growth. Test samples were first dissolved in dimethyl sulfoxide. The following final drug concentrations were routinely used for screening: 100, 20, 4 and 0.8 μg/ml. For active agents, additional dilutions were prepared for subsequent testing so that an accurate EC50 value (defined below) could be achieved. […] The appropriate amount of virus for a multiplicity of infection (moi) between 0.1 and 0.01 Infectious Units/cell was added to the first aliquot of H9 cells. The other aliquot only received culture medium, and these mock-infected cells were used for toxicity determinations (IC50, defined below). After a 4 h incubation at 37° C. and 5% CO2, both cell populations were washed three times with fresh medium and then added to the appropriate wells of a 24 well-plate containing the various concentrations of the test drug or culture medium (positive infected control/negative drug control). In addition, AZT was also assayed during each experiment as a positive drug control. The plates were incubated at 37° C. and 5% CO2 for 4 days. Cell-free supernatants were collected on Day 4 for use in a p24 antigen ELISA assay. P24 antigen is a core protein of HIV and therefore is an indirect measure of virus present in the supernatants. Toxicity was determined by performing cell counts by a Coulter Counter on the mock-infected H9 cells which had either received culture medium (no toxicity), test sample, or AZT.
Compounds of the present invention were assayed for anti-HIV activity according to the following assay procedures. […] The cell lines were used in experiments only when in the logarithmic phase of growth, whereas uninfected peripheral blood mononuclear cells (PBMCs) were first stimulated with PHA (1 μg/mL) for three days. […] The cell lines and PBMCs were washed thoroughly to remove unadsorbed virions and resuspended at 4×10^5 cells/ml in complete medium or complete medium with 10% v/v interleukin 2 (IL-2) , respectively. One ml. aliquots were placed into wells of 24-well culture plates containing an equal volume of test compounds (diluted in the appropriate culture medium). The toxicity of each compound was assessed by determining the number of compound-exposed uninfected cells that remained after four days at 37° C. and 5% CO2. A p24 antigen ELISA assay was used to determine the level of virus released in the medium of the HIV-infected cultures. The p24 antigen assay used a HIV-1 anti-p24 specific monoclonal antibody as the capture antibody coated onto 96-well plates. […] P24 in the culture medium was quantitated against a standard curve containing known amounts of p24. The effective (EC50) and inhibitory (IC50) concentrations for anti-HIV activity and cytotoxicity, respectively, were determined.

[1] = Cytotoxicity: cell counts of mock-infected H9 cells; format: cell-based; details: human
Protocol: as §1, with “The biological evaluation of HIV-1 inhibition was carried out according to established protocols, (Kashiwada, Y., et al., J Med Chem. 39:1016-1017 (1996); Hashimoto, F., et al., Bioorg. & Med Chem. 5:2133-2143 (1997)). The T cell line, H9, was maintained in continuous culture with complete medium (RPMI 1640 with 10% fetal calf serum supplemented with L-glutamine at 5% CO2 and 37° C.). Aliquot” for “Aliquot”, “achieved. As the test samples were being prepared, an aliquot of the H9 cell line was infected with HIV-1 (IIIB isolate) while another aliquot was mock-infected with complete medium.” for “achieved.”
Compounds of the present invention were assayed for anti-HIV activity according to the following assay procedures. The T cell line, H9, and the promonocytic cell line, U937, were maintained separately in continuous culture with complete medium (RPMI 1640 with 10% fetal calf serum) at 5% CO2 and 37° C. The cell lines were used in experiments only when in the logarithmic phase of growth, whereas uninfected peripheral blood mononuclear cells (PBMCs) were first stimulated with PHA (1 μg/mL) for three days. All cell targets were incubated with HIV-1 (IIIB isolate, TCID50 10^4 IU/ml, at a multiplicity of infection of […] IU/cell) for one hour at 37° C. and 5% CO2. The cell lines and PBMCs were washed thoroughly to remove unadsorbed virions and resuspended at 4×10^5 cells/ml in complete medium or complete medium with 10% v/v interleukin 2 (IL-2) , respectively. One ml. aliquots were placed into wells of 24-well culture plates containing an equal volume of test compounds (diluted in the appropriate culture medium). The toxicity of each compound was assessed by determining the number of compound-exposed uninfected cells that remained after four days at 37° C. and 5% CO2. A p24 antigen ELISA assay was used to determine the level of virus released in the medium of the HIV-infected cultures. The p24 antigen assay used a HIV-1 anti-p24 specific monoclonal antibody as the capture antibody coated onto 96-well plates. Following a sample incubation period, rabbit serum containing antibodies for HIV-1 p24 was used to tag any p24 captured onto the microtiterwell surface. Peroxidase conjugated goat anti-rabbit serum was then used to tag HIV-1 p24 specific rabbit antibodies that had complexed with captured p24. […] The cutoff for the p24 ELISA assay was 12.5 pg/ml. P24 in the culture medium was quantitated against a standard curve containing known amounts of p24. […]

[2] = toxic to 50% of mock-infected H9 cells, 4 days, average of at least two experiments, read-out: Cytotoxicity IC50

C=C(C)[C@@H]1CC[C@]2(CO)CC[C@]3(C)[C@H](CC[C@@H]4[C@@]5(C)CC[C@H](O)C(C)(C)[C@@H]5CC[C@]43C)[C@@H]12 [Compound 3, betulin]
Therapeutic Index (TI = IC50/EC50) (HIV-1 (IIIB isolate)): 1.9 | anti-HIV activity, result in words (HIV-1 (IIIB isolate)): less potent than betulinic acid (1) | EC50 (HIV-1 (IIIB isolate)): 23 µM | CC50 at 96 h [1, 2]: 43.7 µM

C=C(C)[C@@H]1CC[C@]2(COC(=O)CC3(CC(=O)O)CCCC3)CC[C@]3(C)[C@H](CC[C@@H]4[C@@]5(C)CC[C@H](OC(=O)CC6(CC(=O)O)CCCC6)C(C)(C)[C@@H]5CC[C@]43C)[C@@H]12 [Compound 6, 3,28-Di-O-(3',3'-tetramethyleneglutaryl)-betulin]
Therapeutic Index (TI = IC50/EC50) (HIV-1 (IIIB isolate)): 267 | anti-HIV activity, result in words (HIV-1 (IIIB isolate)): in the nanomolar range; also recorded: less active compared with compound 4; also recorded: least activity | TI, result in words (HIV-1 (IIIB isolate)): lowest TI values | EC50 (HIV-1 (IIIB isolate)): 0.077 µM | CC50 at 96 h ([1]; h9 cells): 20.5 µM

C=C(C)[C@@H]1CC[C@]2(COC(=O)CC(C)(C)CC(=O)O)CC[C@]3(C)[C@H](CC[C@@H]4[C@@]5(C)CC=CC(C)(C)[C@@H]5CC[C@]43C)[C@@H]12 [Compound 14]
Therapeutic Index (TI = IC50/EC50) (HIV-1 (IIIB isolate)): 5.2 | anti-HIV activity, result in words (HIV-1 (IIIB isolate)): increased anti-HIV activity | EC50 (HIV-1 (IIIB isolate)): 5.4 µM | CC50 at 96 h ([1]; h9 cells): 28.3 µM

C=C(C)[C@@H]1CC[C@]2(COC(=O)CC(C)(C)CC(=O)O)CC[C@]3(C)[C@H](CC[C@@H]4[C@@]5(C)CC[C@H](OC(=O)CC(C)(C)CC(=O)O)C(C)(C)[C@@H]5CC[C@]43C)[C@@H]12 [Compound 4, 3,28-Di-O-(3',3'-dimethylglutaryl)-betulin]
Therapeutic Index (TI = IC50/EC50) (HIV-1 (IIIB isolate)): 21,515 | anti-HIV activity, result in words (HIV-1 (IIIB isolate)): significantly enhanced activity; also recorded: remarkable anti-HIV activity even greater than that of the betulinic acid derivative 2 | TI, result in words (HIV-1 (IIIB isolate)): remarkably high therapeutic index (TI); also recorded: higher TI than compound 2 | EC50 (HIV-1 (IIIB isolate)): 0.00066 µM | fold more potent than compound 2 (HIV-1 (IIIB isolate); compared with compound 2): about 3 fold | CC50 at 96 h ([1]; h9 cells): 14.2 µM

CC(C)[C@@H]1CC[C@]2(COC(=O)CC(C)(C)CC(=O)O)CC[C@]3(C)[C@H](CC[C@@H]4[C@@]5(C)CC[C@H](OC(=O)CC(C)(C)CC(=O)O)C(C)(C)[C@@H]5CC[C@]43C)[C@@H]12 [Compound 8, 3,28-Di-O-(3',3'-dimethyglutaryl)-dihydrobetulin]
Therapeutic Index (TI = IC50/EC50) (HIV-1 (IIIB isolate)): 2,253 | EC50 (HIV-1 (IIIB isolate)): 0.0047 µM | fold drop in TI on saturation of C20-C29 double bond (HIV-1 (IIIB isolate); compared with compound 4): ~9 fold | fold drop in activity on saturation of C20-C29 double bond (HIV-1 (IIIB isolate); compared with compound 4): ~7 fold | CC50 at 96 h ([1]; h9 cells): 10.6 µM

C=C(C)[C@@H]1CC[C@]2(COC(=O)CC(C)(CC)CC(=O)O)CC[C@]3(C)[C@H](CC[C@@H]4[C@@]5(C)CC[C@H](OC(=O)CC(C)(CC)CC(=O)O)C(C)(C)[C@@H]5CC[C@]43C)[C@@H]12 (stereo partly drawn) [Compound 5, 3,28-Di-O-(3',3'-methylethylglutaryl)-betulin]
Therapeutic Index (TI = IC50/EC50) (HIV-1 (IIIB isolate)): 3,476 | anti-HIV activity, result in words (HIV-1 (IIIB isolate)): in the nanomolar range; also recorded: less active compared with compound 4 | EC50 (HIV-1 (IIIB isolate)): 0.0053 µM | CC50 at 96 h ([1]; h9 cells): 18.4 µM

C=C(C)[C@@H]1CC[C@]2(COC(=O)CC(C)(C)CC(=O)O)CC[C@]3(C)[C@H](CC[C@@H]4[C@@]5(C)CCC(=O)C(C)(C)[C@@H]5CC[C@]43C)[C@@H]12 [Compound 12, 3-Deoxy-3-oxo-28-O-(3',3'-dimethylglutaryl)-betulin]
Therapeutic Index (TI = IC50/EC50) (HIV-1 (IIIB isolate)): 2.9 | anti-HIV activity, result in words (HIV-1 (IIIB isolate)): decreased activity further | EC50 (HIV-1 (IIIB isolate)): 10 µM | CC50 at 96 h ([1]; h9 cells): 29.2 µM

Cc1cn([C@H]2C[C@H](N=[N+]=[N-])[C@@H](CO)O2)c(=O)[nH]c1=O [AZT, reference compound]
CC50 at 96 h [1, 2]: 500 µM
